Results on 25 molecules are retold here after US9884063B2, “Amido-substituted azole compounds” (Bayer Pharma Aktiengesellschaft, priority 2014, dated 2018).

For test [1], the system named is HEK293 FOP control reporter cell line. The test is described as follows: HEK293 FOP Assay (FOP control vector luciferase reporter). The test is classed as cell-based. Conditions: Homo sapiens. As to the method: In a parallel approach, HEK293 cells were cotransfected with the FOP control vector and pcDNA3. The FOP vector is identical to the TOP construct, but it contains instead of functional TCF elements a randomized, non-functional sequence. For this transfection a stable transfected cell line was generated as well, based on selection with Geneticin (1 mg/ml).
In preparation of the assay, the two cell lines were plated 24 hrs before beginning the test at 10000 cells per well in a 384 micro titre plate (MTP) in 30 μl growth medium. […] The recombinant human Wnt-3a was thereby applied between 2500 and 5 ng/ml in two-fold dilution steps.
Selective inhibitory activity for small molecules on the wildtype Wnt pathway was determined after parallel incubation of both (TOP and FOP) HEK293 reporter cell lines with a compound dilution series from 50 μM to 15 nM in steps of 3.16-fold dilutions in CAFTY buffer (130 mM sodium chloride, 5 mM potassium chloride, 20 mM HEPES, 1 mM magnesium chloride, 5 mM sodium bicarbonate, pH 7.4) containing 2 mM Ca^2+ and 0.01% BSA.
The compounds were thereby serially prediluted in 100% DMSO and thereafter 50 fold into the CAFTY compound dilution buffer (described above).
(In general: Reporter assays use an easily measured gene product as a stand-in for the process of interest.)

Test [2] deals with wildtype Wnt signaling cascade. Briefly: HEK293 TOP Assay (Super TopFlash luciferase reporter, Wnt-3a stimulated). The test is classed as cell-based. The note with it: Homo sapiens, HEK293, 16 h. The method, boiled down: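 HEK293 cells stably carrying Super TopFlash (TOP) or FOP reporter, stimulated with recombinant human Wnt-3a (2500–5 ng/ml, two-fold steps). Both lines incubated in parallel with compound from 50 μM to 15 nM (3.16-fold) in CAFTY buffer pH 7.4 with 2 mM Ca2+ and 0.01% BSA; selectivity judged TOP vs FOP.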

Setting [3] is: HEK293 FOP control reporter cell line, 16 hours incubation, compound dilution series 50 μM to 15 nM.
Where [4] appears, read: HEK293 TOP reporter cell line, Wnt-3a at EC50, 16 hours incubation, compound dilution series 50 μM to 15 nM.

The structures appear in SMILES notation.

Broadly, the IC50 is the concentration that gives 50% inhibition. Lower therefore signals higher potency. Turning to `CNC(=O)c1nc[nH]c1C(=O)Nc1ccc(NC(=O)c2cc(Cl)cc(Cl)c2)cc1` [Example 327, N^5-{4-[(3,5-dichlorobenzoyl)amino]phenyl}-N^4-methyl-1H-imidazole-4,5-dicarboxamide], the values for the IC50 in test [1] (setting [3]) and in test [2] (setting [4]) were 37 µM and 39.5 µM, respectively.

`CN1CCN(CC(C)(C)NC(=O)c2[nH]cnc2C(=O)Nc2ccc(NC(=O)c3ccc(F)cc3)cc2)CC1` [Example 195, N^4-{4-[(4-fluorobenzoyl)amino]phenyl}-N^5-[2-methyl-1-(4-methylpiperazin-1-yl)propan-2-yl]-1H-imidazole-4,5-dicarboxamide]: the concentration for half-maximal inhibition (IC50) in test [1] (setting [3]) came out at 12 µM; in test [2] (setting [4]) it was 1.01 µM.

Regarding `CNC(=O)c1nc[nH]c1C(=O)Nc1ccc(NC(=O)c2ccccc2Cl)c(C)c1` [Example 87, N^5-{4-[(2-chlorobenzoyl)amino]-3-methylphenyl}-N^4-methyl-1H-imidazole-4,5-dicarboxamide], the IC50 is 28 µM in test [1] (setting [3]) and 1.25 µM in test [2] (setting [4]).

With `CNC(=O)c1nc[nH]c1C(=O)Nc1ccc(NC(=O)c2cccc(Cl)c2C)cc1` [Example 341, N^5-{4-[(3-chloro-2-methylbenzoyl)amino]phenyl}-N^4-methyl-1H-imidazole-4,5-dicarboxamide], the results for the IC50 in test [1] (setting [3]) and in test [2] (setting [4]) were 45 µM and 2.65 µM, respectively.

Take `CC1CCN(CC(C)(C)NC(=O)c2[nH]cnc2C(=O)Nc2ccc(NC(=O)c3ccccc3Cl)cc2)CC1` [Example 158, N^4-{4-[(2-chlorobenzoyl)amino]phenyl}-N^5-[2-methyl-1-(4-methylpiperidin-1-yl)propan-2-yl]-1H-imidazole-4,5-dicarboxamide]: the half-maximal inhibitory concentration (IC50) came out at 29 µM in test [1] (setting [3]) and 1.2 µM in test [2] (setting [4]).

Turning to `COC(=O)c1nc[nH]c1C(=O)Nc1ccc(NC(=O)c2ccccc2Cl)c(F)c1` [Example 79, methyl-5-({4-[(2-chlorobenzoyl)amino]-3-fluorophenyl}carbamoyl)-1H-imidazole-4-carboxylate], the half-maximal inhibitory concentration (IC50) in test [1] (setting [3]) is 8.2 µM; in test [2] (setting [4]), 0.51 µM.

In the case of `CC(C)(C)CNC(=O)c1[nH]cnc1C(=O)Nc1ccc(NC(=O)c2ccc(F)cc2)cc1` [Example 149, N^5-(2,2-dimethylpropyl)-N^4-{4-[(4-fluorobenzoyl)amino]phenyl}-1H-imidazole-4,5-dicarboxamide], the IC50 is 22 µM in test [1] (setting [3]) and 5.2 µM in test [2] (setting [4]).

As for `CN1CCN(C(C)(C)CNC(=O)c2[nH]cnc2C(=O)Nc2ccc(NC(=O)c3ccccc3Cl)cc2)CC1` [Example 202, N^4-{4-[(2-chlorobenzoyl)amino]phenyl}-N^5-[2-methyl-2-(4-methylpiperazin-1-yl)propyl]-1H-imidazole-4,5-dicarboxamide], the concentration for half-maximal inhibition (IC50) in test [1] (setting [3]) came to 9.8 µM; in test [2] (setting [4]), 1.6 µM.

Regarding `CCN(CC)CCCC(C)NC(=O)c1nc[nH]c1C(=O)Nc1ccc(NC(=O)c2ccc(F)cc2Cl)cc1` (stereo not shown) [Example 380, N^5-{4-[(2-chloro-4-fluorobenzoyl)amino]phenyl}-N^4-[5-(diethylamino)pentan-2-yl]-1H-imidazole-4,5-dicarboxamide], the 50% inhibitory concentration (IC50) in test [1] (setting [3]) turned out to be 24 µM; in test [2] (setting [4]), 0.47 µM.

As for `COC(=O)c1nc[nH]c1C(=O)Nc1ccc(NC(=O)c2ccc(F)cc2Cl)c(C)c1` [Example 83, methyl 5-({4-[(2-chloro-4-fluorobenzoyl)amino]-3-methylphenyl}carbamoyl)-1H-imidazole-4-carboxylate], the half-maximal inhibitory concentration (IC50) in test [1] (setting [3]) was determined as 29 µM; in test [2] (setting [4]), 0.39 µM.

For the molecule `CC(C)c1nc(C(=O)Nc2ccc(NC(=O)c3ccc(F)cc3Cl)cc2)c(C(=O)NCCN(C)C)[nH]1` [Example 107, N^4-{4-[(2-chloro-4-fluorobenzoyl)amino]phenyl}-N^5-[2-(dimethylamino)ethyl]-2-isopropyl-1H-imidazole-4,5-dicarboxamide], the concentration for half-maximal inhibition (IC50) came to 39 µM in test [1] (setting [3]) and 7.25 µM in test [2] (setting [4]).

As to `COc1cc(NC(=O)c2[nH]cnc2C(=O)NCCN2CCCCC2)ccc1NC(=O)c1ccc(F)cc1` [Example 105, N^5-{4-[(4-fluorobenzoyl)amino]-3-methoxyphenyl}-N^4-[2-(piperidin-1-yl)ethyl]-1H-imidazole-4,5-dicarboxamide], the IC50 in test [1] (setting [3]) is 29 µM; in test [2] (setting [4]) it was 1.65 µM.

Take `CNC(=O)c1nc[nH]c1C(=O)Nc1ccc(NC(=O)c2ccccc2C(F)(F)F)cc1` [Example 58, N^4-methyl-N^5-(4-{[2-(trifluoromethyl)benzoyl]amino}phenyl)-1H-imidazole-4,5-dicarboxamide]: the results for the IC50 in test [1] (setting [3]) and in test [2] (setting [4]) were 29 µM and 3.35 µM, respectively.

On to `CN1CCN(C(C)(C)CNC(=O)c2[nH]cnc2C(=O)Nc2ccc(NC(=O)c3ccc(F)cc3)cc2)CC1` [Example 188, N^4-{4-[(4-fluorobenzoyl)amino]phenyl}-N^5-[2-methyl-2-(4-methylpiperazin-1-yl)propyl]-1H-imidazole-4,5-dicarboxamide], for which the values for the IC50 in test [1] (setting [3]) and in test [2] (setting [4]) were 15 µM and 5.9 µM, respectively.

`CC(C)(CN1CCCCC1)NC(=O)c1[nH]cnc1C(=O)Nc1ccc(NC(=O)c2ccc(F)cc2)cc1` [Example 156, N^4-{4-[(4-fluorobenzoyl)amino]phenyl}-N^5-[2-methyl-1-(piperidin-1-yl)propan-2-yl]-1H-imidazole-4,5-dicarboxamide]: the results for the half-maximal inhibitory concentration (IC50) in test [1] (setting [3]) and in test [2] (setting [4]) were 15 µM and 2.5 µM, respectively.

On to `CNC(=O)c1nc[nH]c1C(=O)Nc1ccc(NC(=O)c2cc(C)ccc2C)cc1` [Example 307, N^5-{4-[(2,5-dimethylbenzoyl)amino]phenyl}-N^4-methyl-1H-imidazole-4,5-dicarboxamide], for which the IC50 stood at 18 µM in test [1] (setting [3]) and 1.08 µM in test [2] (setting [4]).

As to `Cc1cc(NC(=O)c2[nH]cnc2C(=O)NCCN(C)C)ccc1NC(=O)c1ccc(F)cc1` [Example 92, N^4-[2-(dimethylamino)ethyl]-N^5-{4-[(4-fluorobenzoyl)amino]-3-methylphenyl}-1H-imidazole-4,5-dicarboxamide], the IC50 was found to be 13 µM in test [1] (setting [3]) and 6.95 µM in test [2] (setting [4]).

On to `O=C(Nc1ccc(NC(=O)c2nc[nH]c2C(=O)NCCN2CCCC(O)C2)cc1)c1ccc(F)cc1` (stereo not shown) [Example 167, N^4-{4-[(4-fluorobenzoyl)amino]phenyl}-N^5-[2-(3-hydroxypiperidin-1-yl)ethyl]-1H-imidazole-4,5-dicarboxamide], for which the IC50 in test [1] (setting [3]) came to 44 µM; in test [2] (setting [4]), 1.45 µM.

`O=C(Nc1ccc(NC(=O)c2nc[nH]c2C(=O)NCCCN2CCC(O)CC2)cc1)c1ccc(F)cc1Cl` [Example 275, N^4-{4-[(2-chloro-4-fluorobenzoyl)amino]phenyl}-N^5-[3-(4-hydroxypiperidin-1-yl)propyl]-1H-imidazole-4,5-dicarboxamide]: the half-maximal inhibitory concentration (IC50) in test [1] (setting [3]) was found to be 9.6 µM; in test [2] (setting [4]), 0.47 µM.

Consider `CC(CNC(=O)c1[nH]cnc1C(=O)Nc1ccc(NC(=O)c2ccc(F)cc2)cc1)N1CCCCC1` (stereo not shown) [Example 183, N^4-{4-[(4-fluorobenzoyl)amino]phenyl}-N^5-[2-(piperidin-1-yl)propyl]-1H-imidazole-4,5-dicarboxamide], for which the concentration for half-maximal inhibition (IC50) in test [1] (setting [3]) is 28 µM; in test [2] (setting [4]), 0.68 µM.

As for `O=C(Nc1ccc(NC(=O)c2nc[nH]c2C(=O)NCCN2CCCC(O)C2)cc1)c1ccccc1Cl` (stereo not shown) [Example 152, N^4-{4-[(2-chlorobenzoyl)amino]phenyl}-N^5-{2-[3-hydroxypiperidin-1-yl]ethyl}-1H-imidazole-4,5-dicarboxamide], the 50% inhibitory concentration (IC50) in test [1] (setting [3]) is 30 µM; in test [2] (setting [4]), 0.46 µM.

Regarding `CC1CCN(CC(C)(C)NC(=O)c2[nH]cnc2C(=O)Nc2ccc(NC(=O)c3ccc(F)cc3)cc2)CC1` [Example 175, N^4-{4-[(4-fluorobenzoyl)amino]phenyl}-N^5-[2-methyl-1-(4-methylpiperidin-1-yl)propan-2-yl]-1H-imidazole-4,5-dicarboxamide], the figures for the IC50 in test [1] (setting [3]) and in test [2] (setting [4]) were 27 µM and 3.5 µM, respectively.

Turning to `CN1CCN(NC(=O)c2[nH]cnc2C(=O)Nc2ccc(NC(=O)c3ccccc3Cl)cc2)CC1` [Example 302, N^4-{4-[(2-chlorobenzoyl)amino]phenyl}-N^5-(4-methylpiperazin-1-yl)-1H-imidazole-4,5-dicarboxamide], the IC50 in test [1] (setting [3]) is 26 µM; in test [2] (setting [4]), 1.06 µM.

Take `CN1CCN(NC(=O)c2[nH]cnc2C(=O)Nc2ccc(NC(=O)c3ccc(F)cc3Cl)cc2)CC1` [Example 177, N^4-{4-[(2-chloro-4-fluorobenzoyl)amino]phenyl}-N^5-(4-methylpiperazin-1-yl)-1H-imidazole-4,5-dicarboxamide]: the IC50 turned out to be 17 µM in test [1] (setting [3]) and 0.63 µM in test [2] (setting [4]).

In the case of `CNC(=O)c1nc[nH]c1C(=O)Nc1ccc(NC(=O)c2c(F)cccc2F)cc1` [Example 38, N^5-{4-[(2,6-difluorobenzoyl)amino]phenyl}-N^4-methyl-1H-imidazole-4,5-dicarboxamide], the half-maximal inhibitory concentration (IC50) in test [1] (setting [3]) was 14 µM; in test [1] (HEK293 FOP control reporter cells, 16 hours, luciferase, dilution series from 50 μM) it was 14 µM; in test [2] (setting [4]) it was 2.3 µM; in test [2] (HEK293 TOP reporter cells, Wnt3a at EC50, 16 hours, luciferase), 2.3 µM.
